The source of these data is patent US6699690B2, “Molecular constructs with a carcinoembryonic antigen (CEA) transcriptional regulatory sequence” (SmithKline Beecham Corporation, priority 1992, dated 2004).

Where two headings read alike, the source gives them in different places.

One data set has as its system WiDr cells. The data set is described as follows: Inhibition of cell growth by 5-FC in WiDr cells. In kind it is cell-based. As to conditions: Homo sapiens; control WiDr cells, 3,000 cells per well, dosed from Day 3, read Day 8. How it is done: (§1) FIG. 23: 5-FC dose response of mixed WiDr and WiDr/CD cells. […] Beginning on Day 3, the cells were dosed with serially diluted 5-FC at the concentrations indicated on the x axis. The plates were stained and read on Day 8.
(§2) The following data illustrates and supports this important component of this invention. A human colorectal carcinoma cell line, WiDr, was genetically engineered to express cytosine deaminase (CD) by transfecting into the cell line the cloned gene for cytosine deaminase in an appropriate expression vector system for mammalian cells. WiDr cells expressing cytosine deaminase (WiDR/CD) and control cells not expressing cytosine deaminase (WiDr) were mixed together at different ratios, then plated at a total of 3,000 cells per well in a 96 well microtiter dish. […] Using the same mixtures of WiDr and WiDr/CD cells and again plating 3,000 total cells per well in a 96 well microtiter dish, log dose response curves were generated for the inhibition of cell growth by 5-FC.

The subject of a further data set is WiDr/CD cells. The data set is described as follows: Inhibition of cell growth by 5-FC in WiDr/CD cells. Format: cell-based. As to conditions: Homo sapiens; WiDr/CD cells expressing cytosine deaminase, 3,000 cells per well, dosed from Day 3, read Day 8. As for the experimental part: as §1, §2
Another data set concerns WiDr tumors. The data set is described as follows: 5-FC treatment of subcutaneous WiDr tumors in nude mice. Format: in vivo. The conditions noted are these: 5-FC ip 500 mg/kg. As for the experimental part:
(§3) The same mixtures of WiDr and WiDr/CD cells were injected subcutaneously into 10 individual nude mice for 10 individual injections of 10 million cells for each mixture (Table 3). By day 6, all mice had tumors of approximately the same size. On day 6, 5 mice of each group received a daily injection of 5-FC (ip at 500 mg/kg body weight) for approximately 20 consecutive days, then injections of 5-FC (ip at 500 mg/kg body weight) three times a week for 19 days. By 22 days post tumor cell injection, all nontreated animals had to be killed due to the large size of the tumors. Likewise, all animals with WiDr derived tumors which also received 5-FC treatment had to be sacrificed on day 22 due to the size of the tumors.

Another data set deals with WiDr/CD tumors. As to the kind of experiment: 5-FC treatment of subcutaneous WiDr/CD tumors in nude mice. In kind it is in vivo. The conditions noted are these: WiDr/CD cells injected; 5-FC ip 500 mg/kg; assessed day 130. How it is done: as §3
For data set [1], the system named is mixed WiDr and WiDr/CD tumors. The data set is described as follows: 5-FC treatment of subcutaneous mixed WiDr:WiDr/CD tumors in nude mice. In kind it is in vivo. As to conditions: 5-FC ip 500 mg/kg; for Number of Cures: assessed day 130. How it is done: as §3
The test system of data set [2] is HepG2 cells. The data set is described as follows: ara-ATP formation from (3H)-labelled araM in infected HepG2 cells. As to conditions: HepG2 cells infected with either pCR74- or pCR78-containing viruses. In kind it is cell-based, human. How it is done: (§4) The replication-defective, full-length, artificial retroviruses containing the ALB/VZV TK chimaera or AFP/VZV TK chimaera were used to infect human hepatoma cell lines called HepG2 (ATCC HB 8065) and HuH7(provided by B. Mason, Fox Chase Cancer Center, Philadelphia, Pa.). Following infection and selection on 1 mg Geneticin/mL, the cells were assayed for VZV TK activity (Geneticin(antibiotic G418 sulphate) is a registered trademark of GIBCO). In addition, HepG2 cells were incubated in the presence of (^3H)-labeled 9-β-D-arabinofuranosyl-6-methoxy-9H-purine (designated as araM in the following tables and figures) with subsequent measurement of ara-ATP formation. Finally, HepG2 and HuH7 cells were cultured in the presence of the abovementioned compound and the IC50 (50% growth inhibition) was determined. Cells infected with no virus or N2 virus act as control samples for these experiments. The N2 viruses contain no VZV TK genetic material.
9-β-D-arabinofuranosyl-6-methoxy-9H-purine (designated as araM) can be selectively monophosphorylated by VZV TK with subsequent anabolism to cytotoxic ara-ATP.

The test system of data set [3] is HepG2 cells. The data set is described as follows: Growth inhibition by araM in HepG2 cells. In kind it is cell-based, human. The conditions noted are these: HepG2 infected with ALB/VZV TK (pCR74) virus, 5 days, read-out: IC50 (50% growth inhibition). As for the experimental part: as §4
(§5) HepG2 and HuH7 cells infected with the replication-defective, full-length, artificial retroviruses containing the ALB/VZV TK chimaera (pCR74) or AFP/VZV TK (pCR78) chimaera were incubated in the presence of varying amounts of 9-β-D-arabinofuranosyl-6-methoxy-9H-purine for 5 days and growth inhibition was determined as measured by cell number and DNA content.

In another data set the test system is HuH7 cells. As to the kind of experiment: Growth inhibition by araM in HuH7 cells. In kind it is cell-based. The conditions noted are these: Homo sapiens, Huh-7, 120 h, 5 days, read-out: IC50 (50% growth inhibition). How it is done:
as §4, §5

The subject of data set [4] is WiDR, MCF7, Detroit 555, and SW480 nonhepatoma cell lines. As to the kind of experiment: Growth inhibition by araM in infected nonhepatoma cell lines. In kind it is cell-based, human. As to conditions: four nonhepatoma cell lines infected with pCR74 or pCR78 virus. As for the experimental part:
Four human, nonhepatoma cell lines were infected with replication-defective, full-length, artifical retroviruses containing the ALB/VZV TK chimaera (pCR74) or AFP/VZV TK chimaera (pCR78). These cell lines were WiDR (ATCC CCL218), MCF7 (ATCC HTB22), Detroit 555 (ATCC CCL110), and SW480 (ATCC CCL228). Subsequent to infection and selection on Geneticin (antibiotic G418 sulphate; registered trademark of GIBCO), these cells were assayed for VZV TK activity and growth inhibition in the presence of 9-β-D-arabinofuranosyl-6-methoxy-9H-purine, as described above. There was no increase in VZV TK activity or drug sensitivity to 9-β-D-arabino-furanosyl-6-methoxy-9H-purine in these four nonhepatoma cell lines infected with replication-defective, full-length, artificial retroviruses containing the ALB/VZV TK chimaera (pCR74) or AFP/VZV TK chimaera (pCR78) compared to parental cell lines which were not infected.

One may read the IC50 as the concentration needed to halve the response being measured. `Nc1nc(=O)[nH]cc1F` [5-FC, 5-fluorocytosine]: the IC50 lay in the range of 10000 to 30000 µM with WiDr cells and 10 to 25 µM in the data set on WiDr/CD cells. The “Number of Cures” value is recorded as 0/5 in the data set on WiDr tumors (WiDR cells injected, assessed day 22); 3/5 in the data set on WiDr/CD tumors; 4/5 in data set [1] (WiDr:WiDr/CD (1:1) injected); 4/5 in [1] (WiDr:WiDr/CD (1:2) injected); 4/5 in data set [1] (WiDr:WiDr/CD (2:1) injected). For the same molecule, the effect on tumors entry with WiDr tumors (WiDr tumors that do not express cytosine deaminase) is reported as “no effect”. For the same molecule, the antitumor effects result in data set [1] (all tumor groups composed of mixtures of cells which contained WiDr/CD cells) is on record as “significant antitumor effects”.
`COc1ncnc2c1ncn2[C@@H]1O[C@H](CO)[C@@H](O)[C@@H]1O` [araM, 9-β-D-arabinofuranosyl-6-methoxy-9H-purine]: the “cytotoxic (3H)-ara-ATP formation” value in the data set with HepG2 cells [2] is on record as “significant amounts”. Besides, the IC50 with HepG2 cells [3] (listed as 9-B-D-arabinofuranosyl-6-methoxy-9H-purine) is 5 µM; in the data set on HepG2 cells [3] (Homo sapiens, HepG2, 120 h) it was 6.5 µM; in the data set on HuH7 cells (HuH7, no virus (control)), approximately 1620 µM; in the data set on HuH7 cells (HuH7 infected with AFP/VZV TK (pCR78) virus) it was 76 µM; in the data set on HuH7 cells (HuH7 infected with ALB/VZV TK (pCR74) virus) it was 11 µM. Also, the “increase in drug sensitivity compared to parental cell lines not infected” value in data set [4] was “no increase”.
